Data from patent US20060088598A1, “Intravenous composition, process for producing the same and preparation thereof” (LTT Bio-Pharama Co., Ltd., priority 2002, published 2006).

Legend:
Type in all cases: physicochemical
[1] = Remaining ratio of agent in PLGA microparticles after 1% SDS or 80% FBS, 37° C., 5 minutes; settings: with addition of SDS, FIG. 4
Description: Each of the agents produced in Example 1 was suspended in 80% FBS (fetal bovine serum) or in a 1% SDS aqueous solution, and the suspension was incubated at 37° C. for 5 minutes. Thereafter, the resultant product was centrifuged at 13,000 g for 10 minutes, and the amount of the agent contained in the deposit was assayed by HPLC.

[2] = Encapsulation ratio of agents in PLGA microparticles (HPLC of supernatant and deposit); settings: FIG. 1; microparticles of Example 1
Description: 100 mg of PLGA (Wako) or PLA (Wako), 10 mg of egg yolk lecithin, and 0.5 mg of an agent were dissolved in 1 ml of dichloromethane. While cooling in an ice bath, the obtained solution was slowly added dropwise, through a 27G needle, to 25 ml of distilled water, which was being stirred with Polytron PT-2100 (Kinematica) or an ultrasonic generator (TOMY). After the stirring was continued for 10 minutes, the mixture was further stirred with a stirrer at room temperature for 2 hours. Thereafter, dichloromethane was removed. The obtained microparticles were concentrated by ultra filtration (Amicon, Centriprep YM-10) and were then purified by gel filtration (Pharmacia, PD-10). The thus obtained particles were centrifuged at 13,000 g for 10 minutes, and the agent contained in the supernatant and deposit was assayed by HPLC. HPLC analysis was carried out in a water/acetonitrile system for measuring the absorption at 210 nm or 240 nm using a C4 reverse phase column (Waters, Symmetry 300). With regard to agents, PGE1, and ASO06 produced by esterifying carboxylic acid and a hydroxyl group thereof, were used as prostanoids.

[3] = Releasing behavior of agent from agent-encapsulated PLGA microparticles in suspension; settings: 3% BSA-containing PBS at 37° C.; FIG. 3
Description: (§1) 30 mg of PLGA (Wako) or PLA (Wako), 3 mg of egg yolk lecithin (Wako), and 1 mg of AS006 or BDP were dissolved in 1 ml of dichloromethane, and microparticles were then produced by the same method as described in Example 1. The obtained microparticles were suspended in distilled water, PBS, or 3% BSA-containing PBS. The suspension was allowed for a certain period of time, and was then centrifuged at 13,000 g for 10 minutes. Thereafter, AS006 or BDP contained in the deposit was assayed by HPLC.

[4] = Releasing behavior after freeze-drying in 10% sucrose; settings: freeze-dried in 10% sucrose, resuspended in 3% BSA-containing PBS; FIGS. 6 and 7
Description: as §1
A 10% stabilizer was added to the PLGA microparticle suspension produced in Example 2, and the suspension was then frozen with acetone/dry ice, followed by performing a freeze-drying treatment. The dried PLGA microparticles were dispersed in water again. Thereafter, the turbidity of the suspension was measured with a spectrophotometer, and the microparticle size thereof was measured with a dynamic light scattering photometer. In addition, the AS006-containing PLGA microparticles produced in Example 4 and the BDP-containing PLGA microparticles produced in Example 2 were freeze-dried in 10% sucrose, and the remaining amount of the agent and the releasing behavior were measured by the method described in Example 2.

| agent remaining in PLGA [1] [%] | encapsulation ratio in PLGA microparticle [2] | Compound | sustained-release behavior [3] | releasing behavior with vs without freeze-drying [4] |
| --- | --- | --- | --- | --- |
| ≥ 80 | significantly increased | CCC(=O)OCC(=O)[C@@]1(OC(=O)CC)[C@@H](C)C[C@H]2[C@@H]3CCC4=CC(=O)C=C[C@]4(C)[C@@]3(F)[C@@H](O)C[C@@]21C [BDP, betamethazone dipropionate] | same sustained-release behavior as that of ASO06 | same releasing behavior regardless whether or not a freeze-drying treatment had been carried out |
| – | significantly increased | CCCC(=O)O[C@]1(C(=O)COC(=O)CC)CC[C@H]2[C@@H]3CCC4=CC(=O)CC[C@]4(C)[C@H]3[C@@H](O)C[C@@]21C [HBP, hydrocortisone butyrate propionate] | – | – |
| – | almost no PGE1 could be encapsulated | CCCCC[C@H](O)/C=C/[C@H]1[C@H](O)CC(=O)[C@@H]1CCCCCCC(=O)O [PGE1, prostaglandin E1] | – | – |

| Compound | agent remaining in PLGA [1] [%] | encapsulation ratio in PLGA microparticle [2] | sustained-release behavior [3] | releasing behavior with vs without freeze-drying [4] |
| --- | --- | --- | --- | --- |
| C[C@]12CCC(=O)C=C1CC[C@@H]1[C@@H]2[C@@H](O)C[C@@]2(C)[C@H]1CC[C@]2(O)C(=O)CO [hydrocortisone, Hydrocortisone] | – | almost neither hydrocortisone nor betamethazone could be encapsulated | – | – |
